Experimental data taken from US6066619A, “Non-aqueous protic peptide formulations” (Alza Corporation, priority 1999, dated 2000).

Assay: Gelation of non-aqueous protic solvent formulations on adding polar aprotic solvent
Type: physicochemical
Conditions: adding polar aprotic solvents such as DMSO to non-aqueous protic solvent formulation
Text: Thus, these solvents have an anti-gellant effect.

gelation of the formulation	Compound
prevents gelation	CC(C)C[C@H](NC(=O)[C@@H](COC(C)(C)C)NC(=O)[C@H](Cc1ccc(O)cc1)NC(=O)[C@H](CO)NC(=O)[C@H](Cc1c[nH]c2ccccc12)NC(=O)[C@H](Cc1cnc[nH]1)NC(=O)[C@@H]1CCC(=O)N1)C(=O)N[C@@H](CCCNC(=N)N)C(=O)N1CCC[C@H]1C(=O)NNC(N)=O [goserelin]
prevents gelation	CCNC(=O)[C@@H]1CCCN1C(=O)[C@H](CCCNC(=N)N)NC(=O)[C@H](CC(C)C)NC(=O)[C@@H](CC(C)C)NC(=O)[C@H](Cc1ccc(O)cc1)NC(=O)[C@H](CO)NC(=O)[C@H](Cc1c[nH]c2ccccc12)NC(=O)[C@H](Cc1c[nH]cn1)NC(=O)[C@@H]1CCC(=O)N1 [leuprolide]
prevents gelation	calcitonin
